The source of these data is patent US7939626B2, “Chemoselective ligation” (The Regents of the University of California, priority 2000, dated 2011).

Data set [1] concerns Jurkat cells. Briefly: Cell surface disulfide bond reduction: free sulfhydryl groups detected with iodoacetylbiotin and FITC-avidin. The data set is classed as cell-based, human. Particulars: 1 mM phosphine, 1 hour, relative to cells exposed to iodoacetylbiotin alone, FIG. 9. As for the experimental part: To satisfy the requirement of chemical orthogonality, both participants in the reaction may not engage functional groups endogenous to cells. Triarylphosphines are mild reducing agents, which raises the possibility of disulfide bond reduction as an undesirable side reaction. We addressed this issue by incubating Jurkat cells with triarylphosphine, an intermediate in the synthesis of 47, and quantifying the appearance of free sulfhydryl groups on the cell surface with iodoacetylbiotin and FITC-avidin (FIG. 9). Following incubation, cells were pelleted washed with PBS, and diluted to a volume of 240 μl. Samples were combined with 60 μl of a solution of iodoacetylbiotin (5 mM in PBS), After incubation in the dark at room temperature for 1.5 hrs, the cells were washed with buffer, stained with FITC-avidin, and analyzed by flow cytometry.
After 1 hour in the presence of 1 mM triarylphosphine, no detectable increase in free sulfhydryl groups was observed relative to cells exposed to iodoacetylbiotin alone (FIG. 9). In a positive control experiment, Jurkat cells were incubated with the trialkylphosphine TCEP (1 mM, 1 hour, room temperature), a commercial disulfide bond reducing agent. […] Therefore, triarylphosphines are essentially unreactive toward disulfide bonds under these conditions, rendering ligation with azides the predominant pathway for reactivity.

In data set [2] the test system is Jurkat cells. Briefly: Growth of Jurkat cells incubated with ManAz for three days (cell counting). The data set is classed as cell-based, human. Particulars: ManAz at a range of concentrations, ManNAc as negative control, FIG. 1. As for the experimental part:
Jurkat cell cultures. Cell cultures of Jurkat were maintained in RPMI 1640 media (Gibco Laboratories, Grand Island, N.Y.) supplemented with 5% fetal bovine serum (FBS, Hyclone, Logan, Utah), 50 units/mL of penicillin and 50 μg/mL of streptomycin (Mediatech, Hemdon, Va.), in a humidified 5% CO2 atmosphere at 37° C. Cell densities were determined using a Coulter Counter-Z2 (Coulter, Miami, Fla.),
Treatment of cells with mannosamine derivatives. Cultures of Jurkat cells were seeded at a density of 1.25×10^5 cells/mL into 12-well tissue culture plates in a total volume of 2 mL of culture media. The appropriate amount of each sugar (1, 3, 20, 36, 37) in a solution of PBS was added and the cells were incubated for 3 d. Control wells containing no added sugar were also seeded with cells and incubated.
(§1) Toxicity was ascertained by incubating Jurkat cells, a human T-cell lymphoma cell line, with ManAz for three days at a range of concentrations, using the natural substrate ManNAc (1) as a negative control. Each experiment was performed in triplicate. The cells were counted to determine whether addition of 20 was inhibiting cell growth.

The subject of data set [3] is cell surface. The experiment in a line: Side-by-side comparison with the cell surface ketone reaction. The data set is classed as cell-based. Particulars: same reagent concentrations. From the text: This may reflect either a faster reaction at the cell surface, or more efficient metabolism of azidosugar 20 as compared to the ketosugar. The azide has a major advantage over the ketone in that its reactivity is unique in a cellular context due its abiotic nature. Ketones, by contrast, abound inside cells in the form of metabolites such as pyruvic acid and oxaloacetate. It should be noted that the modified Staudinger reaction is chemically orthogonal to ketone ligations and should allow tandem modification of cell surfaces with the two chemistries.

The test system of data set [4] is Jurkat cells. The experiment in a line: Propidium iodide assay, percentage of viable cells by flow cytometry. The data set is classed as cell-based, human. The following applies: Jurkat cells after 3 days with ManAz, FIG. 2. As for the experimental part:
Flow cytometry. Flow cytometry analysis was performed on a Coulter EPICS® XL-MCL cytometer (Coulter, Miami, Fla.) using a 488 nm argon laser. At least 10^4 viable cells were analyzed from each sample. Dead cells were excluded from the analysis using forward/side scatter gating.
Propidium iodide assay. After growth in the presence of the appropriate sugars, cells were pelleted (3000×g, 2 min), washed twice with 1 mL avidin staining buffer (0.1% NaN3, 0.1% FBS in PBS, pH 7.4) and diluted to a volume of 300 μL. Immediately prior to flow cytometry analysis, 10 μL of propidium iodide solution (1 mM in PBS) was added to each sample.
as §1

Data set [5] has as its system Jurkat cells. The experiment in a line: Competition with ManLev metabolism: cell surface ketone detection with biotin hydrazide and FITC-avidin, flow cytometry. The data set is classed as cell-based, human. Particulars: 3 days, increasing concentrations of acetylated ManAz (Ac4MA) with acetylated ManLev (Ac4ML), FIG. 3. For orientation: In flow cytometry, cells or beads pass a laser one at a time.

The test system of data set [6] is Jurkat cells. Briefly: Cell surface azide expression: reaction with biotinylated phosphine, FITC-avidin staining, flow cytometry. The data set is classed as cell-based, human.
The subject of data set [7] is HeLa cells. Briefly: Cell surface azide expression and growth after the modified Staudinger reaction in HeLa cells.

Consider `O=C(O)CCP(CCC(=O)O)CCC(=O)O` [TCEP], for which the “free sulfhydryl groups on the cell surface” value in data set [1] is listed as “dramatic increase in free cell-surface sulfhydryl groups”.
As to `[N-]=[N+]=NCC(=O)N[C@@H]1C(O)O[C@H](CO)[C@@H](O)[C@@H]1O` (stereo partly drawn) [compound 20, N-azidoacetylmannosamine], the “number of cells observed after 3 days of growth” value in data set [2] was “a decrease in the number of cells observed after 3 days of growth in a dose-dependent fashion”. The “fluorescence of azidosugar metabolism plus phosphine reaction versus ketosugar metabolism plus hydrazide reaction” value in data set [3] is recorded as “two-fold higher fluorescence”. Further, the “percentage of viable cells” value in data set [4] is “No significant change in the percentage of viable cells”.
As to `CC(=O)OC[C@H]1OC(OC(C)=O)[C@@H](NC(=O)CN=[N+]=[N-])[C@@H](OC(C)=O)[C@@H]1OC(C)=O` (stereo partly drawn) [compound 36, 1,3,4,6-Tetra-O-acetyl-N-azidoacetylmannosamine], the “fluorescence from ketone labeling (competition with acetylated ManLev)” value in data set [5] is listed as “proportionately decreasing fluorescence”. Moreover, the “biotin moieties accumulated on the cell surface” value in data set [6] (40 μM acetylated 3 for 3 days, then 2 mM compound 5 for 3 hours) was “approximately 4.5 million”; in data set [6] (40 AM acetylated 20 for 3 days, then 2 mM compound 47 for 3 hours), “approximately 4.5 million”; in data set [6] (acetylated 20 for 3 days, then 1 mM compound 47 for 1 hour, calibrated with biotinylated beads) it was “approximately 850,000 biotin moieties”. The “fluorescence (biotin moieties on the cell surface, FITC-avidin)” value in data set [6] (acetylated azidosugar 20 μM for 3 days, then compound 47 (1 mM in PBS, pH 7.4) 1 hr at room temperature, versus untreated cells, FIG. 5) is “dramatic increase in fluorescence”. The “growth rate after the modified Staudinger reaction” value in data set [7] (HeLa cells cultured for an additional 3 days after the reaction) is on record as “no change in growth rate”. Besides, the “fluorescence after azidosugar incubation and phosphine reaction” value in data set [7] (HeLa cells, compared with the Jurkat result) was “responded similarly”.
Regarding tunicamycin [reference compound], the “fluorescence signal with tunicamycin added during azidosugar incubation” value in data set [6] (tunicamycin present during incubation with the azidosugar) is on record as “reduced”.
